We go through one compound from paper PMC12395807, “Chemoreceptor family in plant-associated bacteria responds preferentially to the plant signal molecule glycerol 3-phosphate” (Genome Biology, 2025).

For one assay, the system named is R2 LBD (WP_136157342.1). Description: Thermal shift ligand screening of R2. Format: binding, Brenneria roseae. As to conditions: thermal shift assay, R2, arrays PM1, PM2A, PM3B, PM4A. As to the method: (§1) Assays were carried out on a MyIQ2 Real-Time PCR instrument (Bio-Rad, Hercules, CA, USA). Ligand solutions were prepared by dissolving the array compounds in 50 µL of Milli-Q water, which, according to the manufacturer, corresponds to a concentration of 10–20 mM. Freshly purified proteins were dialyzed into analysis buffer (Additional file 2: Table S4). Compound arrays PM1, PM2A (carbon sources), PM3B (nitrogen sources), and PM4A (phosphorus and sulfur sources) from Biolog (https://www.biolog.com/) were used. The compositions of these arrays are provided in Additional file 2: Table S1. The experiments were conducted in 96-well plates, and each assay mixture contained 20 µL of the dialyzed protein (at 80–50 µM), 2 µL of 5 × SYPRO orange (Life Technologies, Eugene, Oregon, USA), and 2.5 µL of the resuspended array compound or the equivalent amount of buffer in the ligand-free control. The samples were heated from 23 to 85 °C at a scan rate of 1 °C/min. The protein unfolding curves were monitored by detecting changes in SYPRO® Orange fluorescence. The Tm values were determined from the first derivative values of the raw fluorescence data.

Assay [1] addresses LBD of chemoreceptor R2 (WP_136157342.1) (Brenneria roseae, UniProt A0A2U1TV64, H128N/K136R). Format: binding. As to conditions: ITC, 20 °C, R2 LBD; Nb = no binding. How it is done:
(§2) Plasmids for the overexpression of the different proteins were transformed into E. coli BL21(DE3). The resulting strains were grown under continuous stirring (200 rpm) at 30 °C in 2-L Erlenmeyer flasks containing 500 mL of LB medium supplemented with 50 μg/mL kanamycin. At an OD660 of 0.5, protein expression was induced by the addition of 0.1 mM isopropyl β-D-1-thiogalactopyranoside. Growth was continued at 16 °C overnight prior to cell harvesting by centrifugation at 10,000 × g for 20 min. Cell pellets were resuspended in buffer A (Additional file 2: Table S4) and subsequently broken by French press treatment at 62.5 lb/in^2. After centrifugation at 20,000 × g for 30 min, the supernatants were loaded onto 5-mL HisTrap HP columns (Amersham Biosciences) equilibrated with buffer A, and the proteins were eluted with a linear gradient of buffer B (Additional file 2: Table S4). All proteins contain a hexa-histidine tag at the N-terminal extension (Additional file 2: Table S3) and were purified at 4 °C. The purified proteins were dialyzed overnight into the corresponding analysis buffers (Additional file 2: Table S4) for immediate analysis.
All experiments were conducted on a VP microcalorimeter (Microcal, MA) at 15 °C for PacP-LBD and at 20 °C for the remaining proteins. Proteins were dialyzed into the analysis buffers specified in Additional file 2: Table S4, placed into the sample cell and titrated with aliquots of ligand solutions (1 to 10 mM) freshly prepared in dialysis buffer. The mean enthalpies measured from the injection of the ligands into the analysis buffer were subtracted from the raw titration data prior to data analysis with the MicroCal version of ORIGIN. The data were fitted with the “One binding site model” of ORIGIN.

Assay [2] deals with Pectobacterium atrosepticum SCRI1043. Description: Growth experiment, sole carbon source. The format is cell-based. The following applies: PFM9 minimal medium, 5 mM ligand, 30 °C, 48 h. How it is done:
P. atrosepticum SCRI1043 was cultured overnight in phosphate-free M9-based medium (PFM9) supplemented with 20 mM glucose as the carbon source and 500 µM inorganic phosphate as the phosphate source. Cultures were washed and then diluted to an OD600 of 0.02 in PFM9 supplemented with different PacP ligands as the sole carbon or phosphorous source at a final concentration of 5 mM. Subsequently, 200 µL aliquots of these cultures were transferred into microwell plates, which were subsequently grown at 30 °C on a Bioscreen microbiological growth analyzer (Oy Growth Curves Ab Ltd., Helsinki, Finland) for 48 h.

In another assay the test system is R4 LBD (WP_158281851.1). Description: Thermal shift ligand screening of R4. The format is binding, Rivicola pingtungensis. As to conditions: thermal shift assay, R4, arrays PM1, PM2A, PM3B, PM4A. How it is done:
as §1

For assay [3], the system named is PacP-LBD mutant (Y86, H100, R105, Y121, K148 and Y167 replaced by alanine). As to the kind of experiment: ITC binding to PacP-LBD binding site motif mutant. Also noted: species or system Pectobacterium atrosepticum. As to conditions: 36 μM PacP-LBD alanine mutant; 1 mM glycerol 3-phosphate, 2.5 mM glyceraldehyde 3-phosphate. How it is done:
as §2, with “The purified proteins were dialyzed overnight into the corresponding analysis buffers (Additional file 2: Table S4) for immediate analysis.” left out
All experiments were conducted on a VP microcalorimeter (Microcal, MA) at 15 °C for PacP-LBD and at 20 °C for the remaining proteins. […] The mean enthalpies measured from the injection of the ligands into the analysis buffer were subtracted from the raw titration data prior to data analysis with the MicroCal version of ORIGIN. […]

The subject of the next assay is R3 LBD (WP_006464688.1). As to the kind of experiment: Thermal shift ligand screening of R3. The format is binding, Herbaspirillum frisingense. The following applies: thermal shift assay, R3, arrays PM1, PM2A, PM3B, PM4A. How it is done:
as §1

LBD of chemoreceptor R2 (WP_136157342.1), sequence (A0A2U1TV64 28-178 H128N/K136R): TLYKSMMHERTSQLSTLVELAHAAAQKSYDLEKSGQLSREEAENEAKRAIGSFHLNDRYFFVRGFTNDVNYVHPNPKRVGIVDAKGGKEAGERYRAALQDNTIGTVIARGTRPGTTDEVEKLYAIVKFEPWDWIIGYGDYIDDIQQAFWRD

Regarding `O=P(O)(O)OCC(O)CO` (stereo not drawn) [glycerol 3-phosphate], the Tm change result in the assay on R2 LBD (WP_136157342.1) is on record as “increases in the Tm”; in the assay on R4 LBD (WP_158281851.1), “significant increases in the Tm”; in the assay with R3 LBD (WP_006464688.1) it was “significant increases in the Tm”. The KD result in assay [1] was “showed binding”. Also, the “growth as sole carbon source” value in assay [2] was “supported growth”. For the same compound, the “binding in microcalorimetric titration” value in assay [3] is listed as “absence of binding”.
